US20090286878A1, “POLYOL DERIVED ANTI-MICROBIAL AGENTS AND COMPOSITIONS” (priority 2008, published 2009)

Tests used:
Assay in all cases: Fungicidal activity, modified EN12175 test
Type in all cases: cell-based
Aspergillus niger = settings: 1% concentration; for A. niger log reduction 30 min: 30 min contact; for A. niger log reduction 30 min / A. niger log reduction 1 h / A. niger log reduction 24 h: vs water control; for A. niger log reduction 1 h: 1 h contact; for A. niger log reduction 24 h: 24 h contact; for A. niger cfu/mL (residual spore cell count): inoculum 2.60E+08 cfu/mL, room temperature
Procedure: (§1) Fungicidal activity is tested according to trivial modifications of the standard EN12175 test method. […] Penicillium funiculosum, Aspergillus niger and Aureobasidium pullulans are tested as important mold strains. The resulting cell count reduction is compared to a water control. […]

Aureobasidium pullulans = settings: 1% concentration; for A. pull. log reduction 30 min: 30 min contact; for A. pull. log reduction 30 min / A. pull. log reduction 1 h / A. pull. log reduction 24 h: vs water control; for A. pull. log reduction 1 h: 1 h contact; for A. pull. log reduction 24 h: 24 h contact; for A. pull. cfu/mL (residual spore cell count): inoculum 4.0E+06 cfu/mL, room temperature
Procedure: as §1

Penicillium funiculosum = settings: 1% concentration; for P. funic. log reduction 30 min: 30 min contact; for P. funic. log reduction 30 min / P. funic. log reduction 1 h / P. funic. log reduction 24 h: vs water control; for P. funic. log reduction 1 h: 1 h contact; for P. funic. log reduction 24 h: 24 h contact; for P. funic. cfu/mL (residual spore cell count): inoculum 3.60E+07 cfu/mL, room temperature
Procedure: as §1

Row | SMILES | A. niger log reduction 30 min (Aspergillus niger) [log] | A. niger log reduction 1 h (Aspergillus niger) [log] | A. niger log reduction 24 h (Aspergillus niger) [log] | A. niger cfu/mL (residual spore cell count) (Aspergillus niger) [cfu/mL] | A. pull. log reduction 30 min (Aureobasidium pullulans) [log] | A. pull. log reduction 1 h (Aureobasidium pullulans) [log] | A. pull. log reduction 24 h (Aureobasidium pullulans) [log] | A. pull. cfu/mL (residual spore cell count) (Aureobasidium pullulans) [cfu/mL] | P. funic. log reduction 30 min (Penicillium funiculosum) [log] | P. funic. log reduction 1 h (Penicillium funiculosum) [log] | P. funic. log reduction 24 h (Penicillium funiculosum) [log] | P. funic. cfu/mL (residual spore cell count) (Penicillium funiculosum) [cfu/mL]
1 | CCCCCCCCCCCCNCCCCCC(=O)OCC(CC)(COC(=O)CCCCCNCCCCCCCCCCCC)COC(=O)CCCCCNCCCCCCCCCCCC [Ex 16] | >4 | >4 | >4 | <10 | >4 | >4 | >4 | <10 | >4 | >4 | >4 | <10
2 | CCCCCCCCNCCC(=O)OCC(CC)(COC(=O)CCNCCCCCCCC)COC(=O)CNCCCCCCCC [Ex 18] | >4 | >4 | >4 | <10 | >4 | >4 | >4 | <10 | >4 | >4 | >4 | <10
